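The compound was tested at five concentrations on cells cultured in 96-well plates, with a 48-hour exposure period. GI50 is the concentration that inhibits growth by half.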 Calls of active or inactive are those of the source. Rule as the data show it: active = GI50 up to about 1.1 µM and inactive = higher.

Some test systems named below: A498; CCRF-CEM; DU-145; Hs-578T; KM12; MCF7; MDA-N; MOLT-4; PC-3; RPMI-8226; RXF 393; SF-268; SK-MEL-2; SK-MEL-5; SK-OV-3; SW-620; TK-10; K562; NCI-H460.
Common to all, as to experiment: NCI tumour cell line growth inhibition, 48 h

Consider `Cc1cn(C2CC(O)C(Cn3nncc3Cn3ncc(=O)[nH]c3=O)O2)c(=O)[nH]c1=O` (configuration not stated), for which the GI50 in the assay on A498, in the assay on CCRF-CEM, in the assay on DU-145, in the assay on Hs-578T, in the assay with KM12 and with MCF7 was > 100 µM (inactive) throughout. Moreover, the GI50 in the assay with MDA-N, in the assay with MOLT-4, in the assay with PC-3, with RPMI-8226, in the assay with RXF 393 and in the assay with SF-268 was > 100 µM (inactive) each time. Also, the GI50 in the assay with SK-MEL-2 was > 100 µM (inactive); in the assay with SK-MEL-5 it was > 100 µM (inactive); in the assay with SK-OV-3, 77.1 µM (inactive); with SW-620 it was > 100 µM (inactive); in the assay with TK-10 it was > 100 µM (inactive).
With `C/C=C(\C)C(O)C(C)C(O)C/C=C(C)/C=C(\C)C/C(C)=C/C/C=C(\C)C(O)C(C)c1ccc(CCC)c(=O)o1` (configuration not stated), the GI50 in the assay with A498 was 14.7 µM (inactive); with CCRF-CEM, 61.8 µM (inactive); in the assay with DU-145, < 0.01 µM (active); in the assay with Hs-578T it was 14.5 µM (inactive); in the assay with K562, 0.501 µM (active); in the assay on KM12 it was 7.19 µM (inactive). In addition, the GI50 was 4.25 µM (inactive) with MCF7; 8.77 µM (inactive) in the assay on MDA-N; 20 µM (inactive) with MOLT-4; 5.18 µM (inactive) in the assay on NCI-H460; 3.5 µM (inactive) with PC-3; 16.1 µM (inactive) with RPMI-8226. For the same molecule, the GI50 was 26.7 µM (inactive) in the assay on RXF 393; 15.8 µM (inactive) with SF-268; 23.8 µM (inactive) with SK-MEL-2; 1.14 µM (inactive) in the assay with SK-MEL-5; 32.2 µM (inactive) in the assay with SK-OV-3; 12.3 µM (inactive) with SW-620. The GI50 with TK-10 was 17.5 µM (inactive).
In the case of `CC1(C)CC2=NO[Se]3=C2C(=NO3)C1`, the GI50 with A498 was 4.3 µM (inactive); in the assay on CCRF-CEM, 3.06 µM (inactive); with DU-145, 3.83 µM (inactive); in the assay with Hs-578T, 4.35 µM (inactive); in the assay with K562, 2.72 µM (inactive); in the assay with KM12 it was 2.64 µM (inactive). Also, the GI50 in the assay on MCF7 is 3.27 µM (inactive); with MDA-N, 1.95 µM (inactive); with MOLT-4, 3.48 µM (inactive); with NCI-H460, 1.34 µM (inactive); in the assay with PC-3, 0.394 µM (active); in the assay with RPMI-8226, 3.14 µM (inactive). Moreover, the GI50 was 3.15 µM (inactive) in the assay on RXF 393; 5.3 µM (inactive) with SF-268; 5.78 µM (inactive) in the assay with SK-MEL-2; 1.81 µM (inactive) in the assay on SK-MEL-5; 4.52 µM (inactive) in the assay with SK-OV-3; 3.16 µM (inactive) in the assay on SW-620. In the assay on TK-10, the GI50 was 4.29 µM (inactive).
In the case of `O=C(Nn1c(-c2ccccc2)nc2ccccc2c1=O)c1cccc([N+](=O)[O-])c1`, the GI50 in the assay with A498 was 48.9 µM (inactive); in the assay on CCRF-CEM it was 52.5 µM (inactive); in the assay on DU-145 it was > 100 µM (inactive); in the assay on Hs-578T, 95.3 µM (inactive); in the assay on K562, > 100 µM (inactive); in the assay on KM12 it was > 100 µM (inactive). For the same molecule, the GI50 in the assay on MCF7 is 38 µM (inactive); in the assay on MDA-N, > 100 µM (inactive); in the assay on MOLT-4, 39.9 µM (inactive); in the assay on NCI-H460, 53.8 µM (inactive); with PC-3, 43.1 µM (inactive); in the assay on RPMI-8226 it was 46.8 µM (inactive). Further, the GI50 in the assay on RXF 393 was > 100 µM (inactive); with SF-268, > 100 µM (inactive); in the assay on SK-MEL-5 it was 37.6 µM (inactive); in the assay with SK-OV-3, > 100 µM (inactive); in the assay on SW-620 it was > 100 µM (inactive); in the assay with TK-10 it was 91.8 µM (inactive).
For `NC(Cc1c[nH]c2ccccc12)P(=O)(O)O` (configuration not stated), the GI50 in the assay on A498, with CCRF-CEM, in the assay with DU-145, with Hs-578T, with K562 and in the assay with KM12 was > 100 µM (inactive) in each case. Also, the GI50 in the assay on MCF7, in the assay on MDA-N, with MOLT-4, in the assay on NCI-H460, in the assay with PC-3 and in the assay with RPMI-8226 was > 100 µM (inactive) throughout. The GI50 with RXF 393, with SF-268, in the assay on SK-MEL-2, in the assay on SK-MEL-5, in the assay with SK-OV-3 and in the assay with SW-620 was > 100 µM (inactive) throughout. In the assay on TK-10, the GI50 is > 100 µM (inactive).
On to `CCCCCCCCCCCCCCCCCCNc1ccn(C2OC(CO)C(O)C2O)c(=O)n1` (configuration not stated), for which the GI50 is > 100 µM (inactive) in the assay on A498; 5.37 µM (inactive) in the assay with CCRF-CEM; > 100 µM (inactive) with DU-145; > 28.8 µM (inactive) with Hs-578T; > 73.8 µM (inactive) in the assay with K562; 84.1 µM (inactive) in the assay on KM12. Moreover, the GI50 in the assay with MCF7 was 57.1 µM (inactive); in the assay on MDA-N, > 100 µM (inactive); in the assay with MOLT-4 it was 4.58 µM (inactive); in the assay on NCI-H460, > 100 µM (inactive); with PC-3, 2.45 µM (inactive); in the assay with RPMI-8226 it was 34 µM (inactive). Also, the GI50 was 7.66 µM (inactive) in the assay on RXF 393; > 100 µM (inactive) in the assay with SF-268; > 100 µM (inactive) in the assay on SK-MEL-2; > 100 µM (inactive) in the assay on SK-MEL-5; > 100 µM (inactive) with SK-OV-3; > 100 µM (inactive) with SW-620. In addition, the GI50 with TK-10 was > 100 µM (inactive).
Consider `C#CCOC(=O)C(N)C(C)O` (configuration not stated), for which the GI50 with A498, in the assay on CCRF-CEM, in the assay on DU-145, in the assay with Hs-578T, with K562 and with KM12 was > 100 µM (inactive) in each case. Besides, the GI50 in the assay on MCF7, with MDA-N, in the assay on MOLT-4, in the assay with PC-3, in the assay on RPMI-8226 and in the assay with RXF 393 was > 100 µM (inactive) throughout. In addition, the GI50 in the assay on SF-268, in the assay on SK-MEL-2, in the assay on SK-MEL-5, in the assay with SK-OV-3, with SW-620 and in the assay with TK-10 was > 100 µM (inactive) throughout.
In the case of `CC(CO)CCNc1ncnc2c1ncn2CCC#N` (configuration not stated), the GI50 in the assay with A498, with CCRF-CEM, in the assay with DU-145, with Hs-578T, in the assay with K562 and in the assay with KM12 was > 100 µM (inactive) throughout. The GI50 in the assay with MCF7, in the assay with MDA-N, in the assay on MOLT-4, in the assay on NCI-H460, in the assay on PC-3 and with RPMI-8226 was > 100 µM (inactive) in each case. In addition, the GI50 in the assay with RXF 393, in the assay on SF-268, with SK-MEL-5, with SK-OV-3, in the assay on SW-620 and in the assay with TK-10 was > 100 µM (inactive) in each case.
In the case of `O=C(c1cccs1)N(C(=O)N1CCCCC1)c1ccccc1`, the GI50 in the assay with A498 is > 100 µM (inactive); in the assay on CCRF-CEM it was > 100 µM (inactive); in the assay on DU-145 it was > 100 µM (inactive); in the assay with Hs-578T, 84.7 µM (inactive); in the assay on K562, > 100 µM (inactive); with KM12, > 100 µM (inactive). The GI50 in the assay with MCF7 was > 100 µM (inactive); in the assay with MDA-N, > 100 µM (inactive); with MOLT-4, > 100 µM (inactive); with PC-3, 52.1 µM (inactive); in the assay on RPMI-8226 it was > 100 µM (inactive); in the assay with RXF 393 it was 35 µM (inactive). For the same molecule, the GI50 with SF-268, in the assay on SK-MEL-2, with SK-MEL-5, in the assay on SK-OV-3, with SW-620 and with TK-10 was > 100 µM (inactive) throughout.
`CC(=O)O[C@H]1C(=O)[C@@]2(C)[C@H]([C@H](OC(=O)c3ccccc3)[C@]3(O)C[C@H](OC(=O)[C@H](O)[C@@H](NC(=O)c4ccco4)c4ccccc4)C(C)=C1C3(C)C)[C@]1(OC(C)=O)CO[C@@H]1C[C@@H]2O`: the GI50 in the assay with A498 was 0.0141 µM (active); in the assay on CCRF-CEM, < 0.00125 µM (active); with DU-145 it was 0.00205 µM (active); in the assay with Hs-578T, < 0.00125 µM (active); with K562 it was < 0.00125 µM (active); in the assay with KM12 it was < 0.00125 µM (active). In addition, the GI50 is < 0.00125 µM (active) in the assay with MCF7; < 0.00125 µM (active) with MDA-N; 0.00286 µM (active) with MOLT-4; < 0.00125 µM (active) in the assay on NCI-H460; < 0.00125 µM (active) in the assay on PC-3; < 0.00125 µM (active) in the assay with RPMI-8226. The GI50 is 0.00407 µM (active) in the assay on RXF 393; 0.00162 µM (active) in the assay with SF-268; < 0.00125 µM (active) with SK-MEL-2; < 0.00125 µM (active) with SK-MEL-5; < 0.00125 µM (active) with SK-OV-3; < 0.00125 µM (active) with SW-620. Also, the GI50 in the assay on TK-10 was 0.022 µM (active).
With `COc1cc2c(cc1OC)C(=O)/C(=C/c1cc(Cl)cc(Cl)c1)C2`, the GI50 in the assay with A498 is 17 µM (inactive); with CCRF-CEM it was 2.07 µM (inactive); in the assay with DU-145, 10.6 µM (inactive); in the assay with Hs-578T, 11.3 µM (inactive); in the assay on K562, 0.859 µM (active); in the assay on KM12, 1.38 µM (inactive). In addition, the GI50 in the assay on MCF7 was 2.99 µM (inactive); in the assay on MDA-N, 1.57 µM (inactive); with MOLT-4, 5.08 µM (inactive); with NCI-H460, 4.73 µM (inactive); in the assay with PC-3, 4.03 µM (inactive); in the assay with RPMI-8226, 4.94 µM (inactive). Besides, the GI50 with RXF 393 was 7.41 µM (inactive); with SF-268, 21.4 µM (inactive); with SK-MEL-2, 23.5 µM (inactive); in the assay on SK-MEL-5, 2.54 µM (inactive); with SW-620, 3.79 µM (inactive); in the assay on TK-10, 55.3 µM (inactive).

The values are drawn from ChEMBL document CHEMBL1201862, “PubChem BioAssay data set” (2004).
